Source: ChEMBL document CHEMBL1933053, “Efficient microwave-assisted synthesis, antibacterial activity and high fluorescence of 5 benzimidazolyl-2'-deoxyuridines” (2012)
In brackets after ≈: the same amount, converted by molar mass. Activity calls are given as the source filed them. The rule behind the calls is not given here.

Columns and labels:
[1] = tested on: Human immunodeficiency virus; experiment: Antiviral activity against HIV infected in human MT4 cells assessed as inhibition of virus-induced cytopathogenicity by MTT assay; assay type: functional, organism-based
Pseudomonas aeruginosa = experiment: Antibacterial activity against Pseudomonas aeruginosa ATCC 27853 after overnight incubation by twofold broth dilution technique; assay type: functional
Escherichia coli = experiment: Antibacterial activity against Escherichia coli ATCC 25922 after overnight incubation by twofold broth dilution technique; assay type: functional
Streptococcus pneumoniae [2] = experiment: Antibacterial activity against Streptococcus pneumoniae expressing PenR gene after overnight incubation by twofold broth dilution technique in presence of 2.5% blood; assay type: functional
Haemophilus influenzae = experiment: Antibacterial activity against Haemophilus influenzae ATCC 31517 after overnight incubation by twofold broth dilution technique; assay type: functional
Streptococcus pneumoniae [3] = experiment: Antibacterial activity against Streptococcus pneumoniae expressing PenR gene after overnight incubation by twofold broth dilution technique; assay type: functional
Enterococcus faecium = experiment: Antibacterial activity against Enterococcus faecium expressing VanA gene after overnight incubation by twofold broth dilution technique; assay type: functional
Streptococcus pneumoniae [4] = experiment: Antibacterial activity against Streptococcus pneumoniae ATCC 49619 after overnight incubation by twofold broth dilution technique; assay type: functional
Enterococcus faecalis = experiment: Antibacterial activity against Enterococcus faecalis ATCC 29212 expressing VanS gene after overnight incubation by twofold broth dilution technique; assay type: functional
Staphylococcus aureus [5] = experiment: Antibacterial activity against Staphylococcus aureus after overnight incubation by twofold broth dilution technique; assay type: functional
Staphylococcus aureus [6] = experiment: Antibacterial activity against Staphylococcus aureus ATCC 25923 after overnight incubation by twofold broth dilution technique in presence of 50% human serum; assay type: functional
Staphylococcus aureus [7] = experiment: Antibacterial activity against Staphylococcus aureus ATCC 25923 after overnight incubation by twofold broth dilution technique; assay type: functional
Staphylococcus aureus [8] = experiment: Antibacterial activity against Staphylococcus aureus ATCC 25923 after overnight incubation by twofold broth dilution technique in presence of 10% human serum; assay type: functional
Staphylococcus aureus [9] = experiment: Antibacterial activity against Staphylococcus aureus ATCC 13709 after overnight incubation by twofold broth dilution technique; assay type: functional
Staphylococcus aureus [10] = experiment: Antibacterial activity against methicillin-resistant Staphylococcus aureus after overnight incubation by twofold broth dilution technique; assay type: functional

O=c1[nH]c(=O)n([C@H]2C[C@H](O)[C@@H](CO)O2)cc1-c1nc2c3ccccc3c3ccccc3c2[nH]1
inhibition [1]: inactive
MIC (Pseudomonas aeruginosa): > 64 µg/mL
MIC (Escherichia coli): > 64 µg/mL
MIC (Streptococcus pneumoniae [2]): > 64 µg/mL
MIC (Haemophilus influenzae): > 64 µg/mL
MIC (Streptococcus pneumoniae [3]): > 64 µg/mL
MIC (Enterococcus faecium): > 64 µg/mL
MIC (Streptococcus pneumoniae [4]): > 64 µg/mL
MIC (Enterococcus faecalis): > 64 µg/mL
MIC (Staphylococcus aureus [5]): > 64 µg/mL
MIC (Staphylococcus aureus [6]): > 64 µg/mL
MIC (Staphylococcus aureus [7]): > 64 µg/mL
MIC (Staphylococcus aureus [8]): > 64 µg/mL
MIC (Staphylococcus aureus [9]): > 64 µg/mL

O=c1[nH]c(=O)n([C@H]2C[C@H](O)[C@@H](CO)O2)cc1-c1nc2ccc(F)cc2[nH]1
inhibition [1]: inactive
MIC (Pseudomonas aeruginosa): > 64 µg/mL
MIC (Escherichia coli): > 64 µg/mL
MIC (Streptococcus pneumoniae [2]): > 64 µg/mL
MIC (Haemophilus influenzae): > 64 µg/mL
MIC (Streptococcus pneumoniae [3]): > 64 µg/mL
MIC (Enterococcus faecium): > 64 µg/mL
MIC (Streptococcus pneumoniae [4]): > 64 µg/mL
MIC (Enterococcus faecalis): > 64 µg/mL
MIC (Staphylococcus aureus [5]): > 64 µg/mL
MIC (Staphylococcus aureus [6]): > 64 µg/mL
MIC (Staphylococcus aureus [7]): > 64 µg/mL
MIC (Staphylococcus aureus [8]): > 64 µg/mL
MIC (Staphylococcus aureus [9]): > 64 µg/mL

Cc1ccc2nc(-c3cn([C@H]4C[C@H](O)[C@@H](CO)O4)c(=O)[nH]c3=O)[nH]c2c1
inhibition [1]: inactive
MIC (Pseudomonas aeruginosa): > 64 µg/mL
MIC (Escherichia coli): > 64 µg/mL
MIC (Streptococcus pneumoniae [2]): > 64 µg/mL
MIC (Haemophilus influenzae): > 64 µg/mL
MIC (Streptococcus pneumoniae [3]): > 64 µg/mL
MIC (Enterococcus faecium): > 64 µg/mL
MIC (Streptococcus pneumoniae [4]): > 64 µg/mL
MIC (Enterococcus faecalis): > 64 µg/mL
MIC (Staphylococcus aureus [5]): > 64 µg/mL
MIC (Staphylococcus aureus [6]): > 64 µg/mL
MIC (Staphylococcus aureus [7]): > 64 µg/mL
MIC (Staphylococcus aureus [8]): > 64 µg/mL
MIC (Staphylococcus aureus [9]): > 64 µg/mL

O=c1[nH]c(=O)n([C@H]2C[C@H](O)[C@@H](CO)O2)cc1-c1nc2cc(C(F)(F)F)cc(Cl)c2[nH]1
inhibition [1]: inactive
MIC (Pseudomonas aeruginosa): > 64 µg/mL
MIC (Escherichia coli): > 64 µg/mL
MIC (Streptococcus pneumoniae [2]): 16 µg/mL
MIC (Haemophilus influenzae): > 64 µg/mL
MIC (Streptococcus pneumoniae [3]): 4 µg/mL (≈ 8.95 µM)
MIC (Enterococcus faecium): 1 µg/mL (≈ 2.24 µM)
MIC (Streptococcus pneumoniae [4]): 4 µg/mL (≈ 8.95 µM)
MIC (Enterococcus faecalis): 2 µg/mL (≈ 4.48 µM)
MIC (Staphylococcus aureus [5]): 2 µg/mL (≈ 4.48 µM)
MIC (Staphylococcus aureus [10]): 2 µg/mL (≈ 4.48 µM)
MIC (Staphylococcus aureus [6]): > 64 µg/mL
MIC (Staphylococcus aureus [7]): 2 µg/mL (≈ 4.48 µM)
MIC (Staphylococcus aureus [8]): > 64 µg/mL
MIC (Staphylococcus aureus [9]): 2 µg/mL (≈ 4.48 µM)

O=C(O)c1cn(C2CC2)c2cc(N3CCNCC3)c(F)cc2c1=O [CIPROFLOXACIN]
MIC (Escherichia coli): ≤ 0.03 µg/mL
MIC (Haemophilus influenzae): ≤ 0.03 µg/mL
MIC (Enterococcus faecium): 16 µg/mL (≈ 48.3 µM)
MIC (Streptococcus pneumoniae [4]): 1 µg/mL (≈ 3.02 µM)
MIC (Enterococcus faecalis): 0.5 µg/mL (≈ 1.51 µM)
MIC (Staphylococcus aureus [5]): 0.12 µg/mL (≈ 0.362 µM)
MIC (Staphylococcus aureus [10]): 8 µg/mL (≈ 24.1 µM)
MIC (Staphylococcus aureus [6]): 0.5 µg/mL
MIC (Staphylococcus aureus [7]): 0.25 µg/mL (≈ 0.754 µM)
MIC (Staphylococcus aureus [8]): 0.25 µg/mL
MIC (Staphylococcus aureus [9]): 0.12 µg/mL (≈ 0.362 µM)

O=c1[nH]c(=O)n([C@H]2C[C@H](O)[C@@H](CO)O2)cc1-c1nc2ccccc2[nH]1
inhibition [1]: inactive
MIC (Pseudomonas aeruginosa): > 64 µg/mL
MIC (Escherichia coli): > 64 µg/mL
MIC (Streptococcus pneumoniae [2]): > 64 µg/mL
MIC (Haemophilus influenzae): > 64 µg/mL
MIC (Streptococcus pneumoniae [3]): > 64 µg/mL
MIC (Enterococcus faecium): > 64 µg/mL
MIC (Streptococcus pneumoniae [4]): > 64 µg/mL
MIC (Enterococcus faecalis): > 64 µg/mL
MIC (Staphylococcus aureus [5]): > 64 µg/mL
MIC (Staphylococcus aureus [6]): > 64 µg/mL
MIC (Staphylococcus aureus [7]): > 64 µg/mL
MIC (Staphylococcus aureus [8]): > 64 µg/mL
MIC (Staphylococcus aureus [9]): > 64 µg/mL

CC(=O)NC[C@H]1CN(c2ccc(N3CCOCC3)c(F)c2)C(=O)O1 [LINEZOLID]
MIC (Pseudomonas aeruginosa): > 32 µg/mL
MIC (Escherichia coli): > 32 µg/mL
MIC (Streptococcus pneumoniae [2]): 0.25 µg/mL
MIC (Haemophilus influenzae): 16 µg/mL (≈ 47.4 µM)
MIC (Enterococcus faecium): 0.5 µg/mL (≈ 1.48 µM)
MIC (Staphylococcus aureus [5]): 1 µg/mL (≈ 2.96 µM)
MIC (Staphylococcus aureus [10]): 1 µg/mL (≈ 2.96 µM)
MIC (Staphylococcus aureus [7]): 1 µg/mL (≈ 2.96 µM)
MIC (Staphylococcus aureus [8]): 1 µg/mL
MIC (Staphylococcus aureus [9]): 1 µg/mL (≈ 2.96 µM)

O=c1[nH]c(=O)n([C@H]2C[C@H](O)[C@@H](CO)O2)cc1-c1nc2cc3ccccc3cc2[nH]1
inhibition [1]: inactive
MIC (Pseudomonas aeruginosa): > 64 µg/mL
MIC (Escherichia coli): > 64 µg/mL
MIC (Streptococcus pneumoniae [2]): > 64 µg/mL
MIC (Haemophilus influenzae): > 64 µg/mL
MIC (Streptococcus pneumoniae [3]): > 64 µg/mL
MIC (Enterococcus faecium): > 64 µg/mL
MIC (Streptococcus pneumoniae [4]): > 64 µg/mL
MIC (Enterococcus faecalis): > 64 µg/mL
MIC (Staphylococcus aureus [5]): > 64 µg/mL
MIC (Staphylococcus aureus [6]): > 64 µg/mL
MIC (Staphylococcus aureus [7]): > 64 µg/mL
MIC (Staphylococcus aureus [8]): > 64 µg/mL
MIC (Staphylococcus aureus [9]): > 64 µg/mL

COc1ccc2nc(-c3cn([C@H]4C[C@H](O)[C@@H](CO)O4)c(=O)[nH]c3=O)[nH]c2c1
inhibition [1]: inactive
MIC (Pseudomonas aeruginosa): > 64 µg/mL
MIC (Escherichia coli): > 64 µg/mL
MIC (Streptococcus pneumoniae [2]): > 64 µg/mL
MIC (Haemophilus influenzae): > 64 µg/mL
MIC (Streptococcus pneumoniae [3]): > 64 µg/mL
MIC (Enterococcus faecium): > 64 µg/mL
MIC (Streptococcus pneumoniae [4]): > 64 µg/mL
MIC (Enterococcus faecalis): > 64 µg/mL
MIC (Staphylococcus aureus [5]): > 64 µg/mL
MIC (Staphylococcus aureus [6]): > 64 µg/mL
MIC (Staphylococcus aureus [7]): > 64 µg/mL
MIC (Staphylococcus aureus [8]): > 64 µg/mL
MIC (Staphylococcus aureus [9]): > 64 µg/mL

O=c1[nH]c(=O)n([C@H]2C[C@H](O)[C@@H](CO)O2)cc1-c1nc2ccc(C(F)(F)F)cc2[nH]1
inhibition [1]: inactive
MIC (Pseudomonas aeruginosa): > 64 µg/mL
MIC (Escherichia coli): > 64 µg/mL
MIC (Streptococcus pneumoniae [2]): 64 µg/mL
MIC (Haemophilus influenzae): 4 µg/mL (≈ 9.7 µM)
MIC (Streptococcus pneumoniae [3]): 32 µg/mL (≈ 77.6 µM)
MIC (Enterococcus faecium): 64 µg/mL (≈ 155 µM)
MIC (Streptococcus pneumoniae [4]): 64 µg/mL (≈ 155 µM)
MIC (Enterococcus faecalis): > 64 µg/mL
MIC (Staphylococcus aureus [5]): > 64 µg/mL
MIC (Staphylococcus aureus [6]): > 64 µg/mL
MIC (Staphylococcus aureus [7]): > 64 µg/mL
MIC (Staphylococcus aureus [8]): > 64 µg/mL
MIC (Staphylococcus aureus [9]): > 64 µg/mL
